Results published in patent US9732075B2, “Benzimidazole-proline derivatives” (IDORSIA PHARMACEUTICALS LTD, priority 2012, dated 2017).

Tests used:
humans = settings: cited from earlier work
rat [1] = settings: cited from earlier work
rats [2] = settings: cited from earlier work
rat [3] = settings: cited from earlier work; remark: listed apart in the source
rats [4] = settings: rats treated with the compound; cited from earlier work
[5] = test system: amyloid precursor protein transgenic mice; settings: after acute sleep restriction; cited from earlier work
mouse = settings: administered chronically; cited from earlier work
rats [6] = settings: fasted hungry rats exposed to food odors; cited from earlier work
rat [7] = settings: cited from earlier work; remark: listed apart in the source
human orexin-1 receptor = human orexin-1 receptor (Homo sapiens (Human), UniProt O43613); assay: In vitro assay: intracellular calcium measurements (FLIPR), antagonistic activity; assay type: cell-based; settings: CHO cells expressing human orexin-1 receptor, orexin-A agonist, geometric mean, read-out: IC50 Ox1
human orexin-1 receptor, sequence (O43613 whole entry): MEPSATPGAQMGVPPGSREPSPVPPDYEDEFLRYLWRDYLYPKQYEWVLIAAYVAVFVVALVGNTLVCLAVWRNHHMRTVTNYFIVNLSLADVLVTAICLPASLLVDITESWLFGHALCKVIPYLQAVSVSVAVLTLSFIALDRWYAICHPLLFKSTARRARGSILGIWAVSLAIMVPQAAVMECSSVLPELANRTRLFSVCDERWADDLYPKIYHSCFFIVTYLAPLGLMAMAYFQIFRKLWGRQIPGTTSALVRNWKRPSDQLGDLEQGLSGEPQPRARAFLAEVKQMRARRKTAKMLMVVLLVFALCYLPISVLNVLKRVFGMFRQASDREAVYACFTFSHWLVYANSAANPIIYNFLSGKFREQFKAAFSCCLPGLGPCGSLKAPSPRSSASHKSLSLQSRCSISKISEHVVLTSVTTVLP
How it was run: (§1)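 Dye-loaded CHO cells expressing either human orexin receptor are exposed to test antagonist for 120 min, then stimulated with orexin-A at 3 nM.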

human orexin-2 receptor = human orexin-2 receptor (Homo sapiens (Human), UniProt O43614); assay: as above; assay type: cell-based; settings: CHO cells expressing human orexin-2 receptor, orexin-A agonist, geometric mean, read-out: IC50 Ox2
human orexin-2 receptor, sequence (O43614 whole entry): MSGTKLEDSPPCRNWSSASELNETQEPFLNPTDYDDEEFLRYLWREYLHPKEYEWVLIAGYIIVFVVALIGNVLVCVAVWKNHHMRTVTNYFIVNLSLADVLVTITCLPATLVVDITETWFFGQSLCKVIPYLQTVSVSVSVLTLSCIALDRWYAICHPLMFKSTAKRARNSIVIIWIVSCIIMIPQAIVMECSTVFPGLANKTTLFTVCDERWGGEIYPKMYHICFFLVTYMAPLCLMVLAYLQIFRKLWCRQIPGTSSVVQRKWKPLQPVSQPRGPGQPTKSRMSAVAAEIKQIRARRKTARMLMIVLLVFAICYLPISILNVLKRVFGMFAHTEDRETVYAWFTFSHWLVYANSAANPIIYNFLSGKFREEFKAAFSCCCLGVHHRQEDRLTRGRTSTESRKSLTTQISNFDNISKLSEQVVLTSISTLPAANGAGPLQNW
How it was run: as §1

[8] = Measurement of brain and systemic concentration after oral administration; assay type: in vivo; settings: 3 h after oral administration (100 mg/kg), male wistar rats, n=3
Method: Measurement of Brain and Systemic Concentration after Oral Administration:
In order to assess brain penetration, the concentration of the compound is measured in plasma ([P]), and brain ([B]), sampled 3 h (or at different time points) following oral administration (e.g. 100 mg/kg) to male wistar rats. The compounds are formulated e.g. in 100% PEG 400. Samples are collected in the same animal at the same time point (+/−5 min).
Blood is sampled from the vena cava caudalis into containers with EDTA as anticoagulant and centrifuged to yield plasma. Brain is sampled after cardiac perfusion of 10 mL NaCl 0.9% and homogenized into one volume of cold phosphate buffer (pH 7.4). All samples are extracted with MeOH and analyzed by LC-MS/MS. Concentrations are determined with the help of calibration curves.

Wistar rats = assay: Sedative effects: EEG, EMG and behavioural indices of alertness recorded by radiotelemetry in vivo; settings: 30 mg/kg po; effects analyzed over 6 hours; compared to vehicle controls
Method: Sedative Effects: EEG, EMG and Behavioural Indices of Alertness Recorded by Radiotelemetry In Vivo in Wistar Rats.
Electroencephalography (EEG) and Electromyography (EMG) signals were measured by telemetry using TL11M2-F20-EET miniature radiotelemetric implants (Data Science Int.) with two pairs of differential leads.
Surgical implantation was performed under general anesthesia with Ketamin/Xylazin, for cranial placement of one differential pair of EEG electrodes and one pair of EMG leads inserted in either side of the muscles of the neck. After surgery, rats recovered in a thermoregulated chamber and received analgesic treatment with subcutaneous buprenorphine twice a day for 2 d. They were then housed individually and allowed to recover for a minimum of 2 weeks. Thereafter, rats—in their home cage—were placed in a ventilated sound-attenuating box, on a 12-h light/12-h dark cycle, for acclimatization before continuous EEG/EMG recordings started. The telemetric technology that we used in this study allows accurate and stress-free acquisition of biosignals in rats placed in their familiar home cage environment, with no recording leads restricting their movements. Variables analyzed included four different stages of vigilance and sleep, spontaneous activity in the home cage and body temperature. Sleep and wake stages were evaluated using a rodent scoring software (Somnologica Science) directly processing electrical biosignals on 10 s contiguous epochs. The scoring is based on frequency estimation for EEG and amplitude discrimination for EMG and locomotor activity. Using these measurements, the software determines the probability that all components within each epoch best represent active waking (AW), quiet waking (QW), non-REM-sleep (NREM) or REM-sleep (REM). The percentage of total time spent in AW, QW, NREM- and REM-sleep was calculated per 12 h light or dark period. The latency to the onset of the first significant NREM- and REM-sleep episodes and the frequency and duration of those episodes were also calculated. AW, QW, NREM- and REM-sleep, home cage activity and body temperature were measured at baseline for at least one total circadian cycle (12 h-night, 12 h-day) before a test compound was administered. […] All variables were subsequently recorded for 12 h following administration of the orexin receptor antagonist.

rodents [9] = settings: cited from earlier work
rodents [10] = settings: repeated amphetamine administration; cited from earlier work

## CNC(=O)[C@@H](c1ccccc1)N1CCc2cc(OC)c(OC)cc2[C@@H]1CCc1ccc(C(F)(F)F)cc1 [(2R)-2-{(1S)-6,7-dimethoxy-1-[2-(4-trifluoromethyl-phenyl)-ethyl]-3,4-dihydro-1H-isoquinolin-2-yl}-N-methyl-2-phenyl-acetamide]
humans
  clinical efficacy in primary insomnia: showed clinical efficacy
Rat [1]
  alertness (active wake and locomotion): decrease alertness
  time spent in both REM and NREM sleep: dose-dependently increase
Rats [2]
  cardiovascular responses to conditioned fear and novelty exposure: attenuated
Rat [3]
  activity in fear-potentiated startle paradigm: active
Rats [4]
  learning and memory: intact declarative and non-declarative learning and memory
[5]
  brain levels of amyloid-beta and Aβ plaque deposition: decreased
mouse
  antidepressant-like activity: induce antidepressant-like activity
Rats [6]
  natural activation induced by orexin A: attenuate
Rat [7]
  pharmacological activity in nicotine self-administration: displayed pharmacological activity

## CO[C@H]1C[C@@H](c2nc3ccc(Cl)c(C)c3[nH]2)N(C(=O)c2cc(C)ccc2-n2nccn2)C1 [Example 3.1, ((2S,4S)-2-(6-chloro-7-methyl-1H-benzo[d]imidazol-2-yl)-4-methoxypyrrolidin-1-yl)(5-methyl-2-(2H-1,2,3-triazol-2-yl)phenyl)methanone]
Human orexin-1 receptor
  IC50: 102 nM
Human orexin-2 receptor
  IC50: 69 nM

## Cc1ccc(-n2nccn2)c(C(=O)N2CC[C@H](C)[C@H]2c2nc3cccc(C)c3[nH]2)c1 [Example 4.1, (5-methyl-2-(2H-1,2,3-triazol-2-yl)phenyl)((2S,3S)-3-methyl-2-(7-methyl-1H-benzo[d]imidazol-2-yl)pyrrolidin-1-yl)methanone]
Human orexin-1 receptor
  IC50: 29 nM
Human orexin-2 receptor
  IC50: 778 nM

## Cc1nc(C(=O)N2CCC[C@@]2(C)c2nc3cccc(C)c3[nH]2)c(-c2ccccc2)s1 [Example 5.1, (S)-(2-methyl-2-(7-methyl-1H-benzo[d]imidazol-2-yl)pyrrolidin-1-yl)(2-methyl-5-phenylthiazol-4-yl)methanone]
Human orexin-1 receptor
  IC50: 26 nM
Human orexin-2 receptor
  IC50: 13 nM

## Cc1ccc(-n2nccn2)c(C(=O)N2CCC[C@@]2(C)c2nc3cc(Br)cc(C)c3[nH]2)c1 [Example 5.19]
Human orexin-1 receptor
  IC50: 9 nM
Human orexin-2 receptor
  IC50: 20 nM
[8]
  concentration of the compound in brain [B]: 3880 ng/g
  concentration of the compound in plasma [P]: 2095 ng/mL
Wistar rats
  effect on NREM sleep: +31%
  effect on REM sleep: +69%
  effect on active wake: −28%
  effect on home cage activity: −46%

## COc1ccc(-n2nccn2)c(C(=O)N2CCC[C@@]2(C)c2nc3c(C)c(Cl)ccc3[nH]2)c1 [Example 5.36]
[8]
  concentration of the compound in brain [B]: 1808 ng/g
  concentration of the compound in plasma [P]: 1280 ng/mL
Wistar rats
  effect on NREM sleep: +27%
  effect on REM sleep: +53%
  effect on active wake: −24%
  effect on home cage activity: −31%

## Cc1ccc(-c2ncccn2)c(C(=O)N2CCC[C@@]2(C)c2nc3cc(Br)cc(C)c3[nH]2)c1 [Example 5.277]
Human orexin-1 receptor
  IC50: 6 nM
Human orexin-2 receptor
  IC50: 21 nM
[8]
  concentration of the compound in brain [B]: 5880 ng/g
  concentration of the compound in plasma [P]: 3560 ng/mL
Wistar rats
  effect on NREM sleep: +21%
  effect on REM sleep: +52%
  effect on active wake: −22%
  effect on home cage activity: −42%

## C=C1C[C@@H](c2nc3ccc(OC)cc3[nH]2)N(C(=O)c2nc(C)sc2-c2ccc(F)cc2)C1 [Example 6.1, (S)-(5-(4-fluorophenyl)-2-methylthiazol-4-yl)(2-(6-methoxy-1H-benzo[d]imidazol-2-yl)-4-methylenepyrrolidin-1-yl)methanone]
Human orexin-1 receptor
  IC50: 367 nM
Human orexin-2 receptor
  IC50: 33 nM

## Cc1ccc(-n2nccn2)c(C(=O)N2CCC[C@@]2(C)c2nc3cc(Br)cc(C)c3n2C)c1 [Example 7.4, (S)-(2-(5-bromo-1,7-dimethyl-1H-benzo[d]imidazol-2-yl)-2-methylpyrrolidin-1-yl)(5-methyl-2-(2H-1,2,3-triazol-2-yl)phenyl)methanone]
Human orexin-1 receptor
  IC50: 7 nM
Human orexin-2 receptor
  IC50: 6 nM

## Cn1c(SCC(=O)N2CCC[C@H]2C(=O)Nc2ccccc2-c2ccccc2)nc2ccccc21 [N-biphenyl-2-yl-1-{[(1-methyl-1H-benzimidazol-2-yl)sulfanyl]acetyl}-L-prolinamide]
Rodents [9]
  nicotine-reinstatement for a conditioned reinforcer: inhibited
Rodents [10]
  behavioral (locomotor sensitization) and molecular (transcriptional responses) changes: reduced

## (S)-(2-(6-methoxy-1H-benzo[d]imidazol-2-yl)pyrrolidin-1-yl)(5-methyl-2-(2H-1,2,3-triazol-2-yl)phenyl)methanone [Example 1.1]
Human orexin-1 receptor
  IC50: 1500 nM
Human orexin-2 receptor
  IC50: 108 nM
